Experimental data: patent US9930889B2, “Synergistic weed control from applications of penoxsulam and mefenacet” (Dow AgroSciences LLC, priority 2012, dated 2018)

Tests used:
Test in all cases: Field trial in flooded transplanted rice, % visual weed control
Assay type in all cases: in vivo
[1] = system: Lindernia procumbens (common false pimpernel, LIDPY); conditions: for Penoxsulam Mean % weed control: 18 g ai/ha
Excerpt: (§1) The (a) penoxsulam or an agriculturally acceptable salt thereof is mixed with or applied in combination with (b) mefenacet or an agriculturally acceptable salt thereof in an amount sufficient to induce a synergistic herbicidal effect. […] As described in the Herbicide Handbook of the Weed Science Society of America, Ninth Edition, 2007, p. 429, ′″synergism′ [is] an interaction of two or more factors such that the effect when combined is greater than the predicted effect based on the response to each factor applied separately.” Synergistic in the herbicide context can mean that the use of (a) and (b) as defined above results in an increased weed control effect compared to the weed control effects that are possible with the use of (a) or (b) alone. In some embodiments, the damage or injury to the undesired vegetation caused by the compositions and methods disclosed herein is evaluated using a scale from 0% to 100%, when compared with the untreated control vegetation, wherein 0% indicates no damage to the undesired vegetation and 100% indicates complete destruction of the undesired vegetation. […] 22 (1967)
(§2) Field trials were conducted in Japan with applications made in the area of naturally occurring weed populations. All treatments were applied using a randomized complete block trial design, with 3 replications per treatment. Plot size was 2 meters (m)×2 m (width×length), with each plot being a separate entity and flooded with water. Rice was transplanted into the plots, and the rice crop was maintained as a normal commercial crop with appropriate fertilizer and maintenance treatments as needed. Rice size at application varied from 4 leaf to 2 tiller stage, and weeds were 1 to 5 leaf stage. All plots were maintained flooded to 3 to 6 centimeter (cm) depth and treatments were applied by hand directly into the flooded plots containing the rice and weeds.
(§3) Treatments consisted of penoxsulam and mefenacet, applied alone or in combination. Penoxsulam was applied as a granule formulation (3.5 grams of active ingredient per kilogram (g ai/kg) granule (GR)) applied directly into the flooded plots, or as a liquid formulation (31 grams of active ingredient per liter (g ai/L) emulsifiable concentrate (EC)) mixed in 1 liter (L) of solution and applied into the flooded plots. Mefenacet, as the commercial product HINOCHLOA® containing 40 g ai/kg GR, was applied directly into the flooded plots.
(§4) The treated plots and control plots were rated blind at various intervals after application. Ratings were based on a scale of 0-100%, as discussed above, wherein 0% indicates complete growth of the undesired vegetation and 100% indicates complete prevention of the undesired vegetation.
(§5) Colby's equation was used to determine the herbicidal effects expected from the mixtures, as described above. The results were measured at the evaluation intervals provided in Table 1 after the application of the compositions (penoxsulam and mefenacet, applied alone or in combination). […] The herbicide tank mix combinations tested, application rates and ratios employed, plant species tested, and results are included in Table 1 below.

[2] = system: Echinochloa crus-galli (barnyard grass, ECHCG); conditions: 42 days
Excerpt: as §1, §2, §3, §4, §5

[3] = system: Sagittaria pygmaea (dwarf arrowhead, SAGPY); conditions: 44 days
Excerpt: as §1, §2, §3, §4, §5

[4] = system: Eleocharis kuroguwai (kuro-guwai, ELOKU)
Excerpt: as §1, §2, §3, §4, §5

CN(C(=O)COc1nc2ccccc2s1)c1ccccc1 [Mefenacet, 2-(2-benzothiazolyloxy)-N-methyl-N-phenylacetamide]
Mefenacet Mean % weed control ([1]; 18 days, 500 g ai/ha): 43% | Mefenacet Mean % weed control ([1]; 18 days, 750 g ai/ha): 50% | Mefenacet Mean % weed control ([1]; 18 days, 1000 g ai/ha): 57% | Mefenacet Mean % weed control ([1]; 23 days, 500 g ai/ha): 0% | Mefenacet Mean % weed control ([1]; 23 days, 750 g ai/ha): 27% | Mefenacet Mean % weed control ([1]; 24 days, 500 g ai/ha): 0% | Mefenacet Mean % weed control ([1]; 42 days, 500 g ai/ha): 0% | Mefenacet Mean % weed control ([2]; 750 g ai/ha): 40% | Mefenacet Mean % weed control ([3]; 500 g ai/ha): 0% | Mefenacet Mean % weed control ([3]; 750 g ai/ha): 0% | Mefenacet Mean % weed control ([4]; 34 days, 500 g ai/ha): 0% | Mefenacet Mean % weed control ([4]; 34 days, 750 g ai/ha): 0% | Mefenacet Mean % weed control ([4]; 34 days, 1000 g ai/ha): 0% | Mefenacet Mean % weed control ([4]; 44 days, 1000 g ai/ha): 23% | Mefenacet Mean % weed control ([4]; 52 days, 750 g ai/ha): 33% | Mefenacet Mean % weed control ([4]; 52 days, 1000 g ai/ha): 20% | Mefenacet Mean % weed control ([4]; 61 days, 1000 g ai/ha): 0%

COc1cnc(OC)n2nc(NS(=O)(=O)c3c(OCC(F)F)cccc3C(F)(F)F)nc12 [Penoxsulam]
Penoxsulam Mean % weed control ([1]; 18 days): 73% | Penoxsulam Mean % weed control ([1]; 23 days): 87% | Penoxsulam Mean % weed control ([1]; 24 days): 86% | Penoxsulam Mean % weed control ([1]; 42 days): 83% | Penoxsulam Mean % weed control ([2]; 18 g ai/ha): 81% | Penoxsulam Mean % weed control ([3]; 35 g ai/ha): 82% | Penoxsulam Mean % weed control ([4]; 34 days, 18 g ai/ha): 62% | Penoxsulam Mean % weed control ([4]; 44 days, 70 g ai/ha): 81% | Penoxsulam Mean % weed control ([4]; 52 days, 18 g ai/ha): 34% | Penoxsulam Mean % weed control ([4]; 52 days, 35 g ai/ha): 62% | Penoxsulam Mean % weed control ([4]; 52 days, 70 g ai/ha): 71% | Penoxsulam Mean % weed control ([4]; 61 days, 35 g ai/ha): 49% | Penoxsulam Mean % weed control ([4]; 61 days, 70 g ai/ha): 61%
